Measured values reported in PubChem BioAssay AID463229 (Broad Institute, 2010).

What follows are compounds tested on INS-1E rat beta cells, no cytokines, CellTiter-Glo ATP, 48 h (assay: ATP level change in INS-1E without cytokines, dose response, counter-screen for beta-cell apoptosis protection project, INS-1E rat cells, ATP luminescence, cherry pick (AID 463229)).
`S=c1[nH]nc(-c2cc(-c3ccccc3)n[nH]2)n1/N=C/C(Br)=C/c1ccccc1` showed an AC50 of 8.81 µM.
With `CC[N+]1=C(C)C(C)(C)c2cc(C)ccc21` the AC50 was 8.15 µM.
Work on `Cc1ccc(-n2c(Cl)c(Cl)nc(Cl)c2=O)cc1` yielded an AC50 of 6.66 µM.
Work on `S=C(Nc1ccc(Cl)cc1)Nc1cccc2cnccc12` yielded an AC50 of 22.2 µM.
`O=S1(=O)C=C(Sc2nc3ccccc3s2)c2ccccc21` was tested, and the AC50 was 5.35 µM.
With `CCSCCc1nnc(NC(=O)Nc2cccc(C(F)(F)F)c2)s1` the AC50 was 4.25 µM.
Compound `C/C(=N\NC(=O)COc1ccccc1-c1ccccc1)c1ccccn1` has an AC50 of 6.13 µM.
Compound `CC(=O)NC(C)c1cc(Cl)c2cccnc2c1O` (centres undefined) has an AC50 of 10.7 µM.
In the case of `CCOc1ccc(C(=O)N/N=C(\c2ccccc2)c2ccccn2)cc1`, the AC50 is reported as 4.89 µM.
`CC(=O)c1cccc(NS(=O)(=O)c2ccc(N/C=C/C(=O)c3ccc(F)cc3)cc2)c1` was tested, and the AC50 was 5.02 µM.
For `CN1CCN(c2ccc(CNS(=O)(=O)Cc3cccc(C(F)(F)F)c3)cc2)CC1`, the AC50 was 8.93 µM.
In the case of `Cc1ccc(NC(=S)N/N=C/c2ccc([N+](=O)[O-])s2)cc1`, the AC50 is reported as 6.79 µM.
`COc1cc([N+](=O)[O-])ccc1NC(=O)CC1SC(=Nc2ccc(F)cc2)N(CCC2=CCCCC2)C1=O` (centres undefined) was tested, and the AC50 was 4.23 µM.
`COc1cc(CNC(C)c2ccccc2)cc(Br)c1OCc1ccc(F)cc1` (centres undefined) showed an AC50 of 13.8 µM.
Work on `O=S(=O)(C/C(=C/CO)S(=O)(=O)c1ccccc1)c1ccccc1` yielded an AC50 of 10.9 µM.
`CCCCC(=O)NC(c1ccc(N(CC)CC)cc1)c1ccc2cccnc2c1O` (centres undefined) gave an AC50 of 1.37 µM.
Compound `CCOC(=O)C(=CNc1ccc(C(O)(C(=O)OCC)C(F)(F)F)cc1C)C(=O)OCC` (centres undefined) has an AC50 of 5.26 µM.
`CCOc1ccc(N=Cc2c(C)[nH]n(-c3nc4ccccc4[nH]3)c2=O)cc1` gave an AC50 of 2.83 µM.
`COc1ccc(N/N=C/c2c(C(=O)O)ccc3ccccc23)cc1` was tested, and the AC50 was 4.35 µM.
`CCc1ccc(S(=O)(=O)/N=C2\C=C(Nc3ccc(C(=O)O)cc3)C(=O)c3ccccc32)cc1` gave an AC50 of 14.7 µM.
`CC1=C(C)/C(=N\OS(=O)(=O)c2ccccc2)C=CC1=O` was tested, and the AC50 was 4.13 µM.
`CCN(CC)CCC(=O)Nc1cccc2c1C(=O)c1ccccc1C2=O` showed an AC50 of 12 µM.
For `CC(C)(C)c1ccc(C(=O)Nc2ccc(C(=O)NCc3cccnc3)cc2)cc1`, the AC50 was < 0.195 µM.
`COc1ccc(-c2ccc3c(c2)S(=O)(=O)c2cccc(C(=O)NCCOc4ccccc4Cl)c2C3=O)cc1OC` showed an AC50 of 3.5 µM.
In the case of `Cc1ccc(C)c(S(=O)(=O)Nc2ccc(O)c3ccccc23)c1`, the AC50 is reported as 14.1 µM.
Work on `Cc1ccc2nc(-c3ccccn3)c(Nc3ccccc3C)n2c1` yielded an AC50 of 9.99 µM.
`COc1ccc(S(=O)(=O)/N=C2\C=C(Nc3ccc(O)cc3)C(=O)c3ccccc32)cc1` showed an AC50 of 1.65 µM.
Compound `CCc1ccc(-c2nn(-c3ccccc3)cc2CSC(=N)N)cc1` has an AC50 of 8.32 µM.
`O=C(Nc1cccc(NC(=O)c2cc([N+](=O)[O-])ccc2Cl)n1)c1cc([N+](=O)[O-])ccc1Cl` showed an AC50 of 14.8 µM.
For `COc1ccccc1N1CCN(Cc2ccc(O)c3ncccc23)CC1`, the AC50 was 5.14 µM.
Compound `Cn1c(/C=C/c2ccc([N+](=O)[O-])o2)nc2ccccc2c1=O` has an AC50 of 3.56 µM.
`COc1ccc(C(=O)N/N=C/c2cc(Br)ccc2O)cc1OC` gave an AC50 of 7.2 µM.
`CC(C)CN(C(=O)COC(=O)C12CC3CC(CC(C3)C1)C2)c1c(N)n(Cc2ccccc2)c(=O)[nH]c1=O` was tested, and the AC50 was 3.89 µM.
With `CCN1/C(=C/c2ccc3cc(C)ccc3[n+]2CC)Sc2ccc3sccc3c21` the AC50 was 0.316 µM.
Compound `CCCC(=O)NC(c1cccs1)c1cc(Cl)c2cccnc2c1O` (centres undefined) has an AC50 of 5.67 µM.
Compound `CC1CCC(C(C)C)C(OC(=O)Cn2c(-c3ccc(F)cc3)[n+](C)c3ccccc32)C1` (centres undefined) has an AC50 of 4.49 µM.
In the case of `O=C1C(=O)c2c(C(=O)c3ccccc3)coc2-c2ccccc21`, the AC50 is reported as 7.21 µM.
Compound `O=[N+]([O-])c1ccc(N2CCN(C(=S)NCc3ccc(Cl)cc3)CC2)cc1` has an AC50 of 10.3 µM.
`COc1ccc2nc(/C(C#N)=C\c3ccc(Oc4ccc([N+](=O)[O-])cn4)cc3)[nH]c2c1` gave an AC50 of 6.77 µM.
For `COc1cccc(/C=N/Nc2cc(C)nc(-c3ccccc3O)n2)c1O`, the AC50 was 15.1 µM.
`COc1ccc(CC(=O)Nc2ccncc2Cl)cc1` gave an AC50 of 10.6 µM.
`c1cnc(N2CCN(Cc3c[nH]c4ccccc34)CC2)nc1` gave an AC50 of 4.83 µM.
`O=c1cnnc(N/N=C/c2ccccn2)[nH]1` showed an AC50 of 3.93 µM.
Work on `CCCNC1=C(N(C(C)=O)c2cccc(F)c2)C(=O)c2ccccc2C1=O` yielded an AC50 of 3.06 µM.
With `O=C(Nc1nc2ccccc2[nH]1)c1ccccc1F` the AC50 was 2.14 µM.
For `O=C(NNC(=O)c1ccccc1OCc1ccc(F)cc1)c1ccccc1O`, the AC50 was 13.6 µM.
With `CN1CCN(C(c2ccc(C(F)(F)F)cc2)c2cc(Cl)c3cccnc3c2O)CC1` (centres undefined) the AC50 was 6.69 µM.
`COc1cc2c(cc1OC)-c1c(OC)c(OC)c(OC)c3ccnc(c13)C2=O` was tested, and the AC50 was 6.65 µM.
In the case of `Cc1nc2ccccc2nc1N/N=C/c1ccc(O)cc1O`, the AC50 is reported as 3.6 µM.
Compound `O=C(C[C@@H]1C/C=C/CC[C@H](Cc2ccc(F)cc2)C(=O)OC[C@@H](Cc2ccccc2)NC1=O)N[C@H](CO)Cc1ccccc1` has an AC50 of 7.82 µM.
For `CCN(CC)S(=O)(=O)c1cc([N+](=O)[O-])ccc1NNC(=O)Nc1ccc(Cl)c(Cl)c1`, the AC50 was 6.54 µM.
`CCOC(=O)c1c(CSc2nc(C)cc(C)c2C#N)n(C)c2cc(Br)c(OC(C)=O)cc12` showed an AC50 of 3.73 µM.
In the case of `COc1ccc(/C(C)=N/NC(=O)c2cccc(S(=O)(=O)N3CCCC3)c2)c(O)c1`, the AC50 is reported as 3.8 µM.
`O=C1C(Cl)=C(NCCN2CCCCC2)C(=O)c2ccccc21` showed an AC50 of 14.1 µM.
In the case of `CCN(Cc1ccccc1)C(c1cccs1)c1nnnn1C1CCCCC1` (centres undefined), the AC50 is reported as 13.4 µM.
With `COc1ccc(-n2c(-c3ccc(Br)cc3)c[n+]3c2CCCCC3)cc1` the AC50 was 1.06 µM.
Compound `Nc1ccc2c(c1)C(=O)C(=O)c1ccccc1-2` has an AC50 of 1.2 µM.
`O=S(=O)(c1ccc(Cl)cc1)N1CCN(c2ncnc3sccc23)CC1` showed an AC50 of 6.65 µM.
`CC(C)(C)c1cc(C=C(C#N)C#N)cc(C(C)(C)C)c1O` gave an AC50 of 0.984 µM.
Compound `C(C#CCCCCCCCCC[n+]1ccccc1)#CCCCCCCCCC[n+]1ccccc1` has an AC50 of 1.9 µM.
For `Fc1ccccc1N=C1NN=C(c2ccccc2)CS1`, the AC50 was 4.95 µM.
Work on `c1ccc(CNc2c(-c3cccc(SC4CCCCC4)c3)nc3ccccn23)cc1` yielded an AC50 of 2.98 µM.
Work on `CCN(CC)Cc1c(O)ccc2c1O/C(=C\C=C\c1ccccc1)C2=O` yielded an AC50 of 14.4 µM.
`COc1ccc2nc3cc(Cl)ccc3c(Nc3cc(CN4CCCC4)c(O)c(CN4CCCC4)c3)c2n1` gave an AC50 of 19.5 µM.
Compound `Cc1cc(C)nc(SCC(=O)Nc2ccnc3ccccc23)n1` has an AC50 of 7.55 µM.
`COc1cccc(/C=N/NC(=O)C(=O)Nc2ccccc2OC(F)(F)C(F)F)c1O` gave an AC50 of 6.44 µM.
`CCCCCN=Cc1c(C)[nH]n(-c2nc3ccccc3s2)c1=O` gave an AC50 of 3.2 µM.
`Cc1ccc(NC(=O)Cn2c(O)c(N=NC(=O)c3cc4ccccc4cc3O)c3ccccc32)cc1` showed an AC50 of 8.15 µM.
`CCCCCCCCCC[N+](C)(C)CC/C=C1/c2ccccc2Sc2ccc(Cl)cc21` showed an AC50 of 7.99 µM.
`C/C(=N\NC(=O)C(C)n1nc(C)c([N+](=O)[O-])c1C)c1ccccc1O` (centres undefined) was tested, and the AC50 was 12.5 µM.
`COc1ccc(/C(C)=N/Nc2nc(C)cc(-c3ccccc3)n2)cc1` showed an AC50 of 9.59 µM.
`COc1cc(OC)c2cc(C(=O)N/N=C/c3ccccc3O)[nH]c2c1` showed an AC50 of 8.48 µM.
`Oc1cccc(/C=N/NC(=S)Nc2cccnc2)c1O` showed an AC50 of 8.6 µM.
`O=C(N/N=C/c1cc(Br)c(Br)s1)c1ccncc1` showed an AC50 of 9.72 µM.
For `CC(C)n1cnc2c(NCc3ccccc3)cc(N[C@H](C)CO)cc21`, the AC50 was 13.7 µM.
`Cc1ccc(NC2=C(N3CCCCC3)C(=O)c3ccccc3C2=O)cc1` gave an AC50 of 1.9 µM.
In the case of `C=CCn1c(=NC(=O)c2cc(-c3cccs3)nc3ccccc23)sc2cc(S(N)(=O)=O)ccc21`, the AC50 is reported as 17.9 µM.
Work on `COc1ccc(C(CCNCc2ccc(OC(C)C)cc2)c2ccccc2OC)cc1` (centres undefined) yielded an AC50 of 7.84 µM.
In the case of `O=C(N/N=C(\c1ccccc1)c1ccccn1)c1cccc([N+](=O)[O-])c1`, the AC50 is reported as 2.11 µM.
In the case of `Clc1ccc(C(Cn2ccnc2)OCc2csc3c(Cl)cccc23)c(Cl)c1` (centres undefined), the AC50 is reported as 14.6 µM.
`Cc1nc2ccc(NC(=O)c3cc(S(=O)(=O)N(C)c4ccccc4)ccc3Cl)cc2s1` showed an AC50 of 2.8 µM.
For `Cc1ccc(-c2sc(-c3ccccc3)nc2CC(=O)Nc2ccccc2F)cc1`, the AC50 was 2.06 µM.
With `COc1ccc(/C=C/C(=O)c2ccc([N+](=O)[O-])o2)cc1OC` the AC50 was 4.93 µM.
`Cc1cc(-n2c(SCC(=O)Nc3ccc(F)c(F)c3)nc3n[nH]c(C)c3c2=N)ccc1Cl` showed an AC50 of 5.84 µM.
`Cc1ccc(S(=O)(=O)N2CCN(c3ncnc4sccc34)CC2)cc1` showed an AC50 of 8.15 µM.
For `CN(C)CCNC(=O)/C(=C/c1ccc(-c2ccc(Cl)cc2Cl)o1)NC(=O)c1ccccc1`, the AC50 was 9.44 µM.
`CN1CCN(c2ccc([N+](=O)[O-])c3no[n+]([O-])c23)CC1` showed an AC50 of 1.9 µM.
`Cc1ccc(NC(=O)c2ccccc2NS(=O)(=O)c2ccc(Cl)s2)cc1` was tested, and the AC50 was 5.78 µM.
For `COc1ccc(O)c(/C=N/NC(=S)Nc2cccnc2)c1`, the AC50 was 15.6 µM.
`OC(c1cc(-c2ccc(Cl)cc2)nc2ccccc12)C1CCCCN1` (centres undefined) was tested, and the AC50 was 15.1 µM.
With `CCCCC(=O)NC(c1ccc(N(C)C)cc1)c1ccc2cccnc2c1O` (centres undefined) the AC50 was 1.6 µM.
`Cc1nn(-c2nc3ccccc3[nH]2)c(=O)c2ccccc12` gave an AC50 of 1.31 µM.
`O=C1/C(=C\c2cccnc2)CN(Cc2ccccc2)C/C1=C\c1cccnc1` gave an AC50 of 7.58 µM.
`Cc1ccnc(NC(=O)c2ccc([N+](=O)[O-])s2)c1` showed an AC50 of 8.41 µM.
`CN(C1=C(NC(=O)c2ccccc2)C(=O)c2ccccc2C1=O)C1CCS(=O)(=O)C1` (centres undefined) was tested, and the AC50 was 4.84 µM.
`Cc1csc2ncnc(NCCc3ccccn3)c12` showed an AC50 of 6.88 µM.
With `Cc1ccc(NC(=O)C2CCN(S(=O)(=O)c3ccc4c(c3)NC(=O)C(C)S4)CC2)cc1Cl` (centres undefined) the AC50 was 4.64 µM.
For `O=C1N/C(=N/N=C/c2ccccc2O)SC1Cc1ccc(F)cc1` (centres undefined), the AC50 was 14.6 µM.
`CCCCOCCCNc1ncnc2c1[nH]c1ccccc12` gave an AC50 of 2.24 µM.
For `CCn1c(-c2ccc(N(C)C)cc2)nc2ccccc21`, the AC50 was 3.75 µM.
In the case of `COc1ccc2nc(C)cc(N/N=C/c3ccc(F)cc3)c2c1`, the AC50 is reported as 7.11 µM.
With `Cc1ccc(C)c(S(=O)(=O)Nc2cc(SCC(=O)O)c(O)c3ccccc23)c1` the AC50 was 7.19 µM.
`CCOC(=O)c1[nH]cnc1N=Nc1c(O)ccc2ccccc12` showed an AC50 of 2.28 µM.
`CCCCCCSc1cc(-c2nc3ccc(C)cn3c2NCc2ccccc2)ccc1OC` showed an AC50 of 6.2 µM.
`COc1ccc(C2/C=C\CN(C(=O)C3CC3)[C@H](Cc3ccccc3)C(=O)N2Cc2ccc(F)cc2)cc1` (some centres undefined) gave an AC50 of 14.5 µM.
With `COc1nnc(-c2ccc(N3CCCCC3)c(NC(=O)C3CCCCC3)c2)c2ccccc12` the AC50 was 5.25 µM.
Compound `C#CC[N+](C)(C)CCCCCCCCCCCC` has an AC50 of 6.1 µM.
Compound `Cn1nc(C(C)(C)C)cc1C(=O)NCc1ccc2c(c1)OCO2` has an AC50 of 4.47 µM.
`Cc1ccc(NS(=O)(=O)c2ccc(NC(=O)CN(c3cc([N+](=O)[O-])ccc3C)S(C)(=O)=O)cc2)c(C)c1` showed an AC50 of 1.86 µM.
